One assay deals with Substance-P receptor (Homo sapiens, UniProt P25103). The experiment in a line: Binding affinity towards NK1 receptor.
For another assay, the target named is T1, Substance-K receptor (Homo sapiens, UniProt P21452).
T1 sequence (P21452 whole entry): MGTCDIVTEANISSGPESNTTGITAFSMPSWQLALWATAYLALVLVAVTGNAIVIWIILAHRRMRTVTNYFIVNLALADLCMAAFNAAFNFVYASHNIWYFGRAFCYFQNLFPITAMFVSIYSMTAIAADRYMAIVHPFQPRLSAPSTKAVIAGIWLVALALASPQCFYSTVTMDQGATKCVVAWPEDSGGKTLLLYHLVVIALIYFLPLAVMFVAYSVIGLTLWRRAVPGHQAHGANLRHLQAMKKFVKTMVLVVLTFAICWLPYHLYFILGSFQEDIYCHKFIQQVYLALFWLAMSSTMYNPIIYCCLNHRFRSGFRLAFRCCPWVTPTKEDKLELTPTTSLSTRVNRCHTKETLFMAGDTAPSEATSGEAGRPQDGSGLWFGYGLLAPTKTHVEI
Kind of assay: Binding affinity towards NK2 receptor.

Chain of Substance-P receptor (P25103 whole entry): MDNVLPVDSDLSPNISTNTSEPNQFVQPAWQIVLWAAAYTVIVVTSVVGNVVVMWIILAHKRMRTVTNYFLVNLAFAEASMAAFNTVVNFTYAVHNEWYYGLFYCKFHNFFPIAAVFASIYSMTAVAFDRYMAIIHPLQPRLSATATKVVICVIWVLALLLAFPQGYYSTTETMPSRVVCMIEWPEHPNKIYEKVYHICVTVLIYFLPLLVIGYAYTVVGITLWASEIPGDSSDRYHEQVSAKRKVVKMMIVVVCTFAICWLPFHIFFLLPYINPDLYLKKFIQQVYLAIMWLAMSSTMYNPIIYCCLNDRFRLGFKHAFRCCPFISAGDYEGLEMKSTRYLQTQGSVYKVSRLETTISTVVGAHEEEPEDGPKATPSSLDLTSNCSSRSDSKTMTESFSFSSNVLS

In the case of `CO/N=C(\COCc1cc(C(F)(F)F)cc(C(F)(F)F)c1)C(CCN1CCC(CN2CCCCC2CO)CC1)c1ccc(Cl)c(Cl)c1` (stereo not drawn), the figures for the Ki at Substance-P receptor and on Substance-K receptor were 20 nM and 53 nM, respectively. In the same order, the values of `CO/N=C(\COCc1cc(C(F)(F)F)cc(C(F)(F)F)c1)C(CCN1CCC(CN2CCCCC2)CC1)c1ccc(Cl)c(Cl)c1` (stereo not drawn) are 36 nM and 26 nM. On the same counts, the results for `CO/N=C(\COCc1cc(C(F)(F)F)cc(C(F)(F)F)c1)C(CCN1CCC(CN2CCCC(O)C2)CC1)c1ccc(Cl)c(Cl)c1` (stereo not drawn) are 38 nM and 47 nM. Regarding `CO/N=C(\COCc1cc(C(F)(F)F)cc(C(F)(F)F)c1)C(CCN1CCC(CN2CCCC(C(N)=O)C2)CC1)c1ccc(Cl)c(Cl)c1` (stereo not drawn), the inhibitory constant (Ki) on Substance-P receptor turned out to be 25 nM; at Substance-K receptor it was 27 nM. In the same order, the values of `CO/N=C(\COCc1cc(C(F)(F)F)cc(C(F)(F)F)c1)C(CCN1CCC(N2CCCCC2=O)CC1)c1ccc(Cl)c(Cl)c1` (stereo not drawn) are 18 nM and 4 nM. In the same order, the values of `CO/N=C(\COCc1cc(C(F)(F)F)cc(C(F)(F)F)c1)C(CCN1CCC(CN2CCCC(CO)C2)CC1)c1ccc(Cl)c(Cl)c1` (stereo not drawn) are 50 nM and 39 nM.

For `CO/N=C(\COCc1cc(C(F)(F)F)cc(C(F)(F)F)c1)C(CCN1CCC(C(=O)N2CCCC2)CC1)c1ccc(Cl)c(Cl)c1` (stereo not drawn), the Ki came to 6 nM on Substance-P receptor and 59 nM on Substance-K receptor. On the same counts, the results for `CO/N=C(\COCc1cc(C(F)(F)F)cc(C(F)(F)F)c1)C(CCN1CCC(CN2CCCC(OC(=O)NC(C)C)C2)CC1)c1ccc(Cl)c(Cl)c1` (stereo not drawn) are 17 nM and 33 nM.

With `CO/N=C(\COCc1cc(C(F)(F)F)cc(C(F)(F)F)c1)C(CCN1CCC(CN2CCCCC2CCO)CC1)c1ccc(Cl)c(Cl)c1` (stereo not drawn), the Ki was 13 nM at Substance-P receptor and 14 nM at Substance-K receptor.

As for `CCOC(=O)C1CCCN(CC2CCN(CCC(/C(COCc3cc(C(F)(F)F)cc(C(F)(F)F)c3)=N/OC)c3ccc(Cl)c(Cl)c3)CC2)C1` (stereo not drawn), the Ki at Substance-P receptor was 16 nM; at Substance-K receptor it was 28 nM.

With `CCOC(=O)C1CCCN(C2CCN(CCC(/C(COCc3cc(C(F)(F)F)cc(C(F)(F)F)c3)=N/OC)c3ccc(Cl)c(Cl)c3)CC2)C1` (stereo not drawn), the inhibition constant Ki at Substance-P receptor was 117 nM; at Substance-K receptor, 20 nM. On the same counts, the results for `CO/N=C(\COCc1cc(C(F)(F)F)cc(C(F)(F)F)c1)C(CCN1CCC(CN2CCCC(CC3CC3)C2=O)CC1)c1ccc(Cl)c(Cl)c1` (stereo not drawn) are 14 nM and 26 nM. `CO/N=C(\COCc1cc(C(F)(F)F)cc(C(F)(F)F)c1)C(CCN1CCC(CN2CCCC(Cc3ccccc3)C2=O)CC1)c1ccc(Cl)c(Cl)c1` (stereo not drawn): the inhibition constant (Ki) on Substance-P receptor is 69 nM; on Substance-K receptor, 91 nM.

`CO/N=C(\COCc1cc(C(F)(F)F)cc(C(F)(F)F)c1)C(CCN1CCC(N2CCC(O)C2)CC1)c1ccc(Cl)c(Cl)c1` (stereo not drawn): the inhibition constant Ki on Substance-P receptor was found to be 4 nM; at Substance-K receptor it was 16 nM. With `CO/N=C(\COCc1cc(C(F)(F)F)cc(C(F)(F)F)c1)C(CCN1CCC(C(N)=O)CC1)c1ccc(Cl)c(Cl)c1` (stereo not drawn), the affinity at Substance-K receptor corresponds to a Ki of 67 nM. `CO/N=C(\COCc1cc(C(F)(F)F)cc(C(F)(F)F)c1)C(CCN1CCC(N2CCCC2)CC1)c1ccc(Cl)c(Cl)c1` (stereo not drawn): the inhibition constant Ki amounted to 36 nM on Substance-P receptor and 195 nM at Substance-K receptor. For `CO/N=C(\COCc1cc(C(F)(F)F)cc(C(F)(F)F)c1)C(CCN1CCC(N2CCCC(C(N)=O)C2)CC1)c1ccc(Cl)c(Cl)c1` (stereo not drawn), the inhibition constant (Ki) at Substance-P receptor was 13 nM; on Substance-K receptor, 11 nM. As for `CO/N=C(\COCc1cc(C(F)(F)F)cc(C(F)(F)F)c1)C(CCN1CCC(NC(=O)C2CCCCC2)CC1)c1ccc(Cl)c(Cl)c1` (stereo not drawn), the Ki on Substance-P receptor was 44 nM; on Substance-K receptor, 146 nM. In the same order, the values of `CO/N=C(\COCc1cc(C(F)(F)F)cc(C(F)(F)F)c1)C(CCN1CCC(CN2CCCC(CC(O)CO)C2=O)CC1)c1ccc(Cl)c(Cl)c1` (stereo not drawn) are 7 nM and 16 nM. In the same order, the values of `CO/N=C(\COCc1cc(C(F)(F)F)cc(C(F)(F)F)c1)C(CCN1CCC(N2CCC(OC(=O)NC(C)C)C2)CC1)c1ccc(Cl)c(Cl)c1` (stereo not drawn) are 19 nM and 67 nM.

Regarding `CO/N=C(\COCc1cc(C(F)(F)F)cc(C(F)(F)F)c1)C(CCN1CCC(N2CCC[C@H]2C(N)=O)CC1)c1ccc(Cl)c(Cl)c1` (stereo partly drawn), the Ki at Substance-P receptor is 13 nM; at Substance-K receptor it was 11 nM.

For `CO/N=C(\COCc1cc(C(F)(F)F)cc(C(F)(F)F)c1)C(CCN1CCC(N2CCCC2=S)CC1)c1ccc(Cl)c(Cl)c1` (stereo not drawn), the inhibition constant Ki on Substance-P receptor is 16 nM; at Substance-K receptor it was 23 nM. In the same order, the values of `C=CCC1CCCN(CC2CCN(CCC(/C(COCc3cc(C(F)(F)F)cc(C(F)(F)F)c3)=N/OC)c3ccc(Cl)c(Cl)c3)CC2)C1=O` (stereo not drawn) are 13 nM and 58 nM. In the same order, the values of `CO/N=C(\COCc1cc(C(F)(F)F)cc(C(F)(F)F)c1)C(CCN1CCC(CN2CCCC2=O)CC1)c1ccc(Cl)c(Cl)c1` (stereo not drawn) are 8 nM and 21 nM. On the same counts, the results for `CO/N=C(\COCc1cc(C(F)(F)F)cc(C(F)(F)F)c1)C(CCN1CCC(CN2CCOCC2)CC1)c1ccc(Cl)c(Cl)c1` (stereo not drawn) are 14 nM and 39 nM.

For `CO/N=C(\COCc1cc(C(F)(F)F)cc(C(F)(F)F)c1)C(CCN1CCC(CNC2(CO)CCCC2)CC1)c1ccc(Cl)c(Cl)c1` (stereo not drawn), the inhibition constant Ki at Substance-P receptor is 24 nM; at Substance-K receptor it was 16 nM. In the same order, the values of `CO/N=C(\COCc1cc(C(F)(F)F)cc(C(F)(F)F)c1)C(CCN1CCC(NC(=O)c2ccccc2)CC1)c1ccc(Cl)c(Cl)c1` (stereo not drawn) are 18 nM and 144 nM. In the same order, the values of `CO/N=C(\COCc1cc(C(F)(F)F)cc(C(F)(F)F)c1)C(CCN1CCC(N2CCCC2=O)CC1)c1ccc(Cl)c(Cl)c1` (stereo not drawn) are 9 nM and 7 nM. For `CO/N=C(\COCc1cc(C(F)(F)F)cc(C(F)(F)F)c1)C(CCN1CCC(CNC(=O)c2ccccc2)CC1)c1ccc(Cl)c(Cl)c1` (stereo not drawn), the Ki at Substance-P receptor worked out at 112 nM; on Substance-K receptor it was 137 nM. As to `CO/N=C(\COCc1cc(C(F)(F)F)cc(C(F)(F)F)c1)C(CCN1CCC(N2CCCCC2CO)CC1)c1ccc(Cl)c(Cl)c1` (stereo not drawn), the inhibition constant (Ki) at Substance-P receptor worked out at 14 nM; on Substance-K receptor, 15 nM. On to `CO/N=C(\COCc1cc(C(F)(F)F)cc(C(F)(F)F)c1)C(CCN1CCC(CN2CCCCC2=S)CC1)c1ccc(Cl)c(Cl)c1` (stereo not drawn), for which the results for the Ki on Substance-P receptor and on Substance-K receptor were 20 nM and 23 nM, respectively.

As to `CO/N=C(\COCc1cc(C(F)(F)F)cc(C(F)(F)F)c1)C(CCN1CCC(CN2CCCCC2=O)CC1)c1ccc(Cl)c(Cl)c1` (stereo not drawn), the Ki on Substance-P receptor came out at 10 nM; at Substance-K receptor it was 12 nM.

Values taken from ChEMBL document CHEMBL1134190, “Synthesis of substituted 4(Z)-(methoxyimino)pentyl-1-piperidines as dual NK1/NK2 inhibitors” (Bioorg Med Chem Lett, 2001).
